US4767718A, “Fluorescent opioid reagents and methods of use thereof in the detection of opioid receptors” (Southern Illinois University Foundation, priority 1984, dated 1988)
Entries after “also recorded” stand apart in the source; their conditions may differ. Where two headings read alike, the source gives them in different places.

Columns and labels:
[1] = target: T1, opioid receptor (rat brain synaptosomal plasma membranes) (Rattus norvegicus, UniProt P33535); test: displacement of ^3H-dihydromorphine (^3H-DHM) from rat brain synaptosomal plasma membranes; type: binding; conditions: for Hill coefficient: ^3H-DHM displacement; for binding activity for use in detection and quantification of receptor sites: synaptosomal membranes, in words
T1 construct: from rat brain synaptosomal plasma membranes; from tissue; host or cells: rat brain synaptosomal plasma membranes

[2] = target: T2, opioid receptor sites, ^3H-DHM indicator ligand (Rattus norvegicus, UniProt P33535); test: site selectivity analysis (Terenius and Wahlstrom), displacement of labeled ^3H-DHM in presence of cold DALE; type: binding
T2 construct: from rat brain synaptosomal plasma membranes; from tissue; host or cells: rat brain synaptosomal plasma membranes (inferred from the sister test; b86 says only 'a substrate')
Text: (§1) In FIG. 1 it will be noted that compounds which displace the two indicator ligands differently provide a curve which is convex towards the axis of the labeled indicator ligand which is less favorably displaced.

[3] = target: T3, opioid receptor sites, ^3H-DALE indicator ligand (Rattus norvegicus, UniProt P33533); test: site selectivity analysis (Terenius and Wahlstrom), displacement of labeled ^3H-DALE in presence of cold DHM; type: binding
T3 construct: from rat brain synaptosomal plasma membranes; from tissue; host or cells: rat brain synaptosomal plasma membranes (inferred from the sister test; b86 says only 'a substrate')
Text: as §1

[4] = test system: guinea pig ileum longitudinal muscle; test: electrically stimulated guinea pig ileum longitudinal muscle preparation; conditions: for persistence of antagonist effect on washing of ileum: after washing
Experimental: 6-FN was tested for activity on an electrically stimulated guinea pig ileum longitudinal muscle preparation. In this test, a specimen of guinea pig ileum was stretched between two wires in a nutrient solution (2.5 mil.) and stimulated supramaximally at 0.1 Hz. In the absence of opioid agonists and antagonists electrical stimulation of the muscle results in contraction.

[5] = fluorescence and absorption properties; type: physicochemical; conditions: for emission maximum / excitation maximum: pH 7 phosphate buffer, 10^-6 M solution
Experimental: The container was wrapped in aluminium foil. Thereafter, portions of ethyl alcohol and water were added to the reaction mixture.

[6] = hygroscopicity of sample submitted for elemental analysis; type: physicochemical
[7] = determined graphically, rat brain synaptosomal plasma membranes

T1 sequence (P33535 whole entry): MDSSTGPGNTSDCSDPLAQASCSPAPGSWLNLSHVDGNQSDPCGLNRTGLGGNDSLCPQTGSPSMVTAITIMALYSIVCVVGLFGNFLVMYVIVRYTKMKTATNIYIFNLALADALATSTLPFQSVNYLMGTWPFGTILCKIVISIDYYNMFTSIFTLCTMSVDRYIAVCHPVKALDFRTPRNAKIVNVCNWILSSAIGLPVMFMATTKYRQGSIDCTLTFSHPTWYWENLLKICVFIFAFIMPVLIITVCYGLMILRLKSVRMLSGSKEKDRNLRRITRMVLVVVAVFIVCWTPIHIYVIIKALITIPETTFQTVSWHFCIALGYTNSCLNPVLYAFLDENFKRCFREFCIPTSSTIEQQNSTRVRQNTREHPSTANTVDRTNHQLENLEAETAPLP
T2 sequence (P33535 whole entry): as above
T3 sequence (P33533 whole entry): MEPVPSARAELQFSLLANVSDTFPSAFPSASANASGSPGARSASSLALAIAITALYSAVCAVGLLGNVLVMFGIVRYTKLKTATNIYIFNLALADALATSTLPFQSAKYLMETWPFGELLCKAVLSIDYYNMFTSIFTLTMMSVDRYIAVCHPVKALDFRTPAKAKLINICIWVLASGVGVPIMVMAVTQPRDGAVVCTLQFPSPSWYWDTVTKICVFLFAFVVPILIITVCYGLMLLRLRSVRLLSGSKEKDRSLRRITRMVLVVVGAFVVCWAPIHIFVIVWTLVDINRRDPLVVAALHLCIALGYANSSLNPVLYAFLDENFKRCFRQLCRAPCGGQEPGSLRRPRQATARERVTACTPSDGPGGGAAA

In the case of C=CCN1CC[C@]23c4c5ccc(O)c4O[C@H]2C(=NNC(=S)Nc2ccc4c(c2)C(=O)OC42c4ccc(O)cc4Oc4cc(O)ccc42)CC[C@@]3(O)[C@H]1C5 [6-FN, 1-(N)-Fluoresceinyl Naloxone Thiosemicarbazone], the Hill coefficient [1] is reported as 0.671, the IC50 [1, 7] is reported as 0.02 µM and the “binding activity for use in detection and quantification of receptor sites” value (from here on “binding activity for use”) [1] is reported as “sufficient binding activity”. The IC50 [2] was 0.012 µM, the “site selectivity compared with naloxone (FIG. 1)” value ([2]; percent bound DALE* versus percent bound DHM*, in words) was “show clearly the difference between 6-FN and naloxone with respect to site selectivity” and the IC50 [3] was 0.017 µM. The “agonist activity of 6-FN” value ([4]; 10^-6 M 6-FN, FIG. 2) was “slight agonist effect; also recorded: partial agonist activity”, the “persistence of antagonist effect on washing of ileum” value [4] was “did not readily eliminate the antagonist effect” and the “antagonist effect with respect to normorphine” value ([4]; final 6-FN concentration 10^-7 M, prior to normorphine) was “antagonist effect; also recorded: significantly inhibited the agonist effect of normorphine”. The “antagonist effect compared with inhibiting effect of naloxone” value ([4]; inhibition of normorphine agonist effect) was “ten times less effective”, the fluorescence polarization [5] was 0.038 and the absorption maximum ([5]; 10^-5 M solution, phosphate buffer) was 493 nm. The “absorbance A at absorption maximum” value ([5]; 10^-5 M solution, phosphate buffer, 493 nm) was 0.410, the “quantum yield compared to free fluorescein” value ([5]; 10^-9 M) was “about 67%” and the emission maximum [5] was 513 nm. The excitation maximum [5] was 493 nm.

In the case of O=C1OC2(c3ccc(O)cc3Oc3cc(O)ccc32)c2ccc(NC(=S)NN=C3CC[C@@]4(O)[C@H]5Cc6ccc(O)c7c6[C@@]4(CCN5CC4CC4)[C@H]3O7)cc21 [6-FNX, 1-(N)-fluoresceinyl naltrexone thiosemicarbazone], the IC50 [1] is reported as 0.005 µM, the Hill coefficient [1] is reported as 0.675 and the “binding activity for use” value [1] is reported as “sufficient binding activity”.

In the case of CN1CC[C@]23c4c5ccc(O)c4O[C@H]2C(=NNC(=S)Nc2ccc4c(c2)C(=O)OC42c4ccc(O)cc4Oc4cc(O)ccc42)CC[C@@]3(O)[C@H]1C5 [6-FO, 1-(N)-Fluoresceinyl Oxymorphone thiosemicarbazone], the Hill coefficient [1] is reported as 0.989, the IC50 [1, 7] is reported as 0.02 µM and the “binding activity for use” value [1] is reported as “sufficient binding activity”. For the same compound, the hygroscopicity [6] was “very hygroscopic”.

With C=CCN1CC[C@]23c4c5ccc(O)c4O[C@H]2C(=NNC(=S)Nc2ccc4c(c2)C(=O)OC42c4ccc(N(C)C)cc4Oc4cc(N(C)C)ccc42)CC[C@@]3(O)[C@H]1C5 [6-RN, 1-(N)-tetramethylrhodaminyl-B-naloxone Thiosemicarbazone] the Hill coefficient [1] was 1.09 and the “binding activity for use” value [1] was “sufficient binding activity”.

With O=C1OC2(c3ccc(O)cc3Oc3cc(O)ccc32)c2ccccc21 [free fluorescein, fluorescein, reference compound] the fluorescence polarization [5] was 0.022, the emission maximum [5] was 510-511 nm and the excitation maximum [5] was 493 nm.

For C=CCN1CC[C@]23c4c5ccc(O)c4O[C@H]2C(=O)CC[C@@]3(O)[C@H]1C5 [naloxone, reference compound], the “reversal of 6-FN partial agonist activity by naloxone” value ([4]; 10^-7 M naloxone versus 10^-6 M 6-FN) was “reversible”, the “antagonist effect of naloxone with respect to 6-FN” value ([4]; FIG. 2 legend) was “antagonist effect” and the “persistence of antagonist effect on washing of ileum” value [4] was “similar”.

With Oc1ccc2c3c1O[C@H]1[C@@H](O)C=C[C@H]4[C@@H](C2)NCC[C@@]341 [normorphine, reference compound] the “agonist effect, inhibition of contraction of ileum” value ([4]; normorphine 25 microliters, 10^-7 M) was “agonist effect; also recorded: substantially inhibited contraction of the muscle”.
